The test system of data set [1] is L1210 murine leukemia cell line. Nature of the data set: cell growth inhibition in a cytotoxic assay with L1210. It is filed as cell-based.
Data set [2] relates to L1210 murine leukemia cells. The data set is described as follows: in vivo antitumor model, L1210 cells implanted ip into mice.
The test system of data set [3] is L1210 murine leukemia cells. As to conditions: previously established; cited from earlier work.
The conditions of data set [4]: human plasma.
For data set [5], the system named is DNA. The data set is described as follows: DNA alkylation in cell-free systems. It is filed as biochemical.
Data set [6] in a line: chemical reactivity/stability under acidic, basic and nucleophilic conditions. It is filed as physicochemical.
Data set [7] relates to L1210 murine leukemia cell line. As to conditions: natural enantiomer; cited from earlier work.

Results on six compounds are retold here after PMC3386426 (Journal of Medicinal Chemistry, 2012).

What is called IC50 is the concentration that inhibits the measured activity by half.

Like-named read-outs stand apart in the source and are kept apart here.

On to `Nc1cccc2c1C(=O)C=C1N(C(=O)c3cc4cc(NC(=O)c5cc6ccccc6[nH]5)ccc4[nH]3)CC3CC123` (racemic) [(±)-20, N-(2-(5-Amino-4-oxo-1,2,9,9a-tetrahydrocyclopropa[c]benzo[e]indole-2-carbonyl)-1H-indol-5-yl)-1H-indole-2-carboxamide], for which the “fold less active than 4 (active enantiomer of 20)” value in data set [1] (L1210, inferred for the active enantiomer from the racemate) was 3–4 fold.

Turning to `O=C1Nc2cccc3c4c(cc(c23)O1)N(C(=O)c1cc2cc(NC(=O)c3cc5ccccc5[nH]3)ccc2[nH]1)CC4CCl` (single isomer, unassigned; (+)) [(+)-6, N-(2-(10-(Chloromethyl)-5-oxo-5,8,9,10-tetrahydro-4H-pyrrolo[3',2':5,6]naphtho[1,8-de][1,3]oxazine-8-carbonyl)-1H-indol-5-yl)-1H-indole-2-carboxamide], the “long term cures (>250 days)” value in data set [2] (9000 μg/kg ip on days 1, 5, 9) was 5/10. In addition, the “antitumor activity over dose range” value in data set [2] (300 to 9000 μg/kg ip on days 1, 5, 9 (30-fold range)) was “productive antitumor activity over the entire and much larger dose range examined”.

`O=C(Nc1ccc2[nH]c(C(=O)N3C[C@H](CCl)c4c3cc(O)c3ccccc43)cc2c1)c1cc2ccccc2[nH]1` [Compound 4, seco-CBI-indole2] came in with a half-maximal inhibitory concentration (IC50) in data set [1] (Mus musculus, L1210, L1210 cell line) of 0.03 nM. The optimal dose range in data set [3] is 0.06 to 0.1 mg/kg. Also, in data set [2] (60 μg/kg ip on days 1, 5, 9), the “T/C (percent survival)” value was found to be 197 and the “long term (250 days) survivors” value is 1/10. Further, the “toxicity (premature death of the animals)” value in data set [2] (doses of 100–500 μg/kg ip on days 1, 5, 9) is reported as “toxic”.

The compound `O=C1Nc2cccc3c4c(cc(c23)O1)N(C(=O)c1cc2cc(NC(=O)c3cc5ccccc5[nH]3)ccc2[nH]1)CC4CCl` (centres unmarked) [Compound 6, N-(2-(10-(Chloromethyl)-5-oxo-5,8,9,10-tetrahydro-4H-pyrrolo[3',2':5,6]naphtho[1,8-de][1,3]oxazine-8-carbonyl)-1H-indol-5-yl)-1H-indole-2-carboxamide] showed a free drug release in data set [4] of 5%. Also, in data set [1] (L1210, relative to 16), the “times more potent than its N-Boc precursor 16” value lay within 100 to 1000 times. In addition, the DNA alkylation result in data set [5] is “incapable of alkylating DNA”. The “stability under acidic conditions” value in data set [6] (1:1 TFA:CH2Cl2, 4 N HCl in EtOAc, up to 72 h at 23 °C) is listed as “stable”.

Take `CC(C)(C)OC(=O)N1C[C@@H](CCl)c2c1cc1c3c(cccc23)NC(=O)O1` [Compound 16, tert-Butyl 10-(Chloromethyl)-5-oxo-9,10-dihydro-4H-pyrrolo[3',2':5,6]naphtho[1,8-de][1,3]oxazine-8(5H)-carboxylate]: the “fold less active than N-Boc-CBI” value in data set [1] (L1210, relative to N-Boc-CBI) is on record as 50–100 fold. Also, the “stability of cyclic carbamate to hydrolysis under acidic conditions” value in data set [6] (1:1 TFA:CH2Cl2, 4 N HCl in EtOAc, 48 h at 23 °C) is on record as “stable”. Also, the “stability to nucleophiles BnSH and BnOH” value in data set [6] (100 equiv in MeOH and THF at 23 °C for 48 h) is recorded as “completely stable”. Further, the “stability to BnNH2 in MeOH” value in data set [6] (BnNH2 (100 equiv) in MeOH, 24 h) was “rapidly cleaved”. Besides, the “stability to BnNH2 in THF” value in data set [6] (BnNH2 in THF) is given as “stable”. Also, in data set [6] (NaHCO3 in protic solvents), the “hydrolysis of cyclic carbamate with NaHCO3” value is reported as “slowly hydrolyzed”. Besides, the “stability to organic bases” value in data set [6] (organic bases in aprotic solvents) was “stable”.

For the compound `CC(C)(C)OC(=O)N1C[C@H]2C[C@@]23C1=CC(=O)c1ccccc13` [N-Boc-CBI], the IC50 in data set [7] is 80 nM.
